Source: ChEMBL document CHEMBL1201862, “PubChem BioAssay data set” (2004)
The source made the active and inactive calls.

Experiments:
[1] = biological target: T1, Adenosylmethionine-8-amino-7-oxononanoate aminotransferase (Mycobacterium tuberculosis, UniProt P9WQ81); assay: Mycobacterium tuberculosis BioA enzyme inhibitor Measured in Biochemical System Using Plate Reader - 2163-02_Inhibitor_Dose_CherryPick_Activity.; type: functional, Mycobacterium tuberculosis UT205
T1 sequence (P9WQ81 whole entry): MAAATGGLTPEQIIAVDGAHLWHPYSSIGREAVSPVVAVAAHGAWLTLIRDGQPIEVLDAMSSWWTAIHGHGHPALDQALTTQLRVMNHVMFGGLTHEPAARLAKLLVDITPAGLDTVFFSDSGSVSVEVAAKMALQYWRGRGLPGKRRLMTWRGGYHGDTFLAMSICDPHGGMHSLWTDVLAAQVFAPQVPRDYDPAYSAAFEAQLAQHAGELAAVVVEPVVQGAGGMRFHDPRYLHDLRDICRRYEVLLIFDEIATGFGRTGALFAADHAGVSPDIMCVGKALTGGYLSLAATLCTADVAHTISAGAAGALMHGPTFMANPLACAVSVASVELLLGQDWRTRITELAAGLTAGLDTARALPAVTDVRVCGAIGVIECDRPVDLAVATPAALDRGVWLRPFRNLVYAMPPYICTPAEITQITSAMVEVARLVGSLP

[2] = biological target: T2, Long-chain-fatty-acid--AMP ligase FadD28 (Mycobacterium tuberculosis, UniProt P9WQ59); assay: Fluorescence polarization aasay to screen for inhibitors that compete for the binding of FadD28 to a bisubstrate Measured in Biochemical System Using Plate Reader - 2147-01_Inhibitor_Dose_CherryPick_Activity.; type: functional, Mycobacterium tuberculosis H37Rv
T2 sequence (P9WQ59 whole entry): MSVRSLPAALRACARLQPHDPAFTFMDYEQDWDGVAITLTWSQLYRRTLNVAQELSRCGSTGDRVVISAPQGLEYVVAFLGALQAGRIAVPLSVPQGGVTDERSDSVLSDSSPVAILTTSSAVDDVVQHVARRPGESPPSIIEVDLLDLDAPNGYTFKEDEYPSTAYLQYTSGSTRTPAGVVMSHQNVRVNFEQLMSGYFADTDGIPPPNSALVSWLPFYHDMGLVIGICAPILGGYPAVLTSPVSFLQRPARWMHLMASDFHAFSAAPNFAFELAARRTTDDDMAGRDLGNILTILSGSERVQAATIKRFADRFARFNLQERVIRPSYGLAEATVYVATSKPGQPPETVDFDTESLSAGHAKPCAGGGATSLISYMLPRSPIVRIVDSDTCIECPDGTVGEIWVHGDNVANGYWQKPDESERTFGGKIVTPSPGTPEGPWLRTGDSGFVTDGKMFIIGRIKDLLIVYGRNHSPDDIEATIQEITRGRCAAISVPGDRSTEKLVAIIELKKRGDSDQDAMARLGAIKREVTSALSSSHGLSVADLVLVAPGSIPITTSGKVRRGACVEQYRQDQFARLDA

[3] = Fluorescence-based cell-based high throughput dose response assay for inhibitors of the interaction of nucleotide-binding oligomerization domain containing 2 (NOD2) and the receptor-interacting serine-threonine kinase 2 (RIPK2).; type: functional; conditions: Homo sapiens
P388 = assay: cells; type: functional; conditions: Mus musculus
P388/ADR = assay: cells; type: functional; conditions: Mus musculus
SN12K1 = assay: cells; type: functional; conditions: Homo sapiens
HEK293 [4] = assay: HEK cell cytotoxicity by LDH release, dose response, cytotoxicity control for IDE activator project, fluorescence, HEK cells (AID 588440); type: functional, cell-based, Homo sapiens; conditions: Homo sapiens, HEK293;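 also: cytotoxicity by LDH release measuring loss of membrane integrity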
[5] = biological target: T3, Ubiquitin-conjugating enzyme E2 N (Homo sapiens, UniProt P61088); type: functional
T3 sequence (P61088 whole entry): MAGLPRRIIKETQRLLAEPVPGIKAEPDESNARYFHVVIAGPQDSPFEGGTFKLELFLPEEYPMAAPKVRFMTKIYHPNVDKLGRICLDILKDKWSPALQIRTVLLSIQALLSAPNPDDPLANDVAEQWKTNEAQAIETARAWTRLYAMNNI

HEK293 [6] = assay: optical interference in Abeta FP readout, dose response, artefact control for IDE activator project, biochemical, fluorescence polarization (AID 588442); type: functional, cell-based; conditions: Homo sapiens
[7] = biological target: T3, Ubiquitin-conjugating enzyme E2 N; type: functional; remark: listed apart in the source
Insulin-degrading enzyme [8] = biological target: T4, Insulin-degrading enzyme (Homo sapiens, UniProt P14735); assay: activators of recombinant IDE enzyme, dose response, counter-screen for IDE activator project, biochemical, fluorescence polarization (AID 588681)
T4 sequence (P14735 whole entry): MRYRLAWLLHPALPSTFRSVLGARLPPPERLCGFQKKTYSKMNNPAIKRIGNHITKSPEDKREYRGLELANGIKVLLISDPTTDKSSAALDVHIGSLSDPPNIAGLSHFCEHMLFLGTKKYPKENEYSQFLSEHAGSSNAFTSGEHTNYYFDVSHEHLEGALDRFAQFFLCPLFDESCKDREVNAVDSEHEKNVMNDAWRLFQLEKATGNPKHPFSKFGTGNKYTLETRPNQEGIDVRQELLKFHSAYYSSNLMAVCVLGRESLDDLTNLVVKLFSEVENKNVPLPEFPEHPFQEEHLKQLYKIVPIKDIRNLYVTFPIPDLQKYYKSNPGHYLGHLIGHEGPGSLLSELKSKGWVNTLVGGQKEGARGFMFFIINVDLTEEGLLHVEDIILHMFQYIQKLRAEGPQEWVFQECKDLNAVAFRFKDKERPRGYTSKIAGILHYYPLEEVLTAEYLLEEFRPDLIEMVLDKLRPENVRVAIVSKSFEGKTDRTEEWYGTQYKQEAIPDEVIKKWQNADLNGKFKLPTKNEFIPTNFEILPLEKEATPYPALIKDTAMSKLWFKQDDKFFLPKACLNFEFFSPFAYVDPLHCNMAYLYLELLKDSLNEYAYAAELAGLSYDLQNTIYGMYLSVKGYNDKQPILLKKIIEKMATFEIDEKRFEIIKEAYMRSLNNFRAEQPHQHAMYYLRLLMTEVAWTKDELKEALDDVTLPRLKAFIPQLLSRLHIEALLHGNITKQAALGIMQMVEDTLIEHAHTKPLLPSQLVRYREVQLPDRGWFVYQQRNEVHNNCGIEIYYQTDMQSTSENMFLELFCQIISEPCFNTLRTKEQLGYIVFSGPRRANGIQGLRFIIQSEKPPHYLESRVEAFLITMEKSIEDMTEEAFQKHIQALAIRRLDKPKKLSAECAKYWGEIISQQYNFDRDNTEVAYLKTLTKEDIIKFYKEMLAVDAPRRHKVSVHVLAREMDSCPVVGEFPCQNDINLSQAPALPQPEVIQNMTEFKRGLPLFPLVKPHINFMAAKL

Bcl-2-related protein A1 = biological target: T5, Bcl-2-related protein A1 (Mus musculus, UniProt Q07440); type: functional;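 also: confirmatory dose–response counterscreen on Bfl-1, used to check hits from a UBC13 polyubiquitin inhibitor campaign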
T5 sequence (Q07440 whole entry): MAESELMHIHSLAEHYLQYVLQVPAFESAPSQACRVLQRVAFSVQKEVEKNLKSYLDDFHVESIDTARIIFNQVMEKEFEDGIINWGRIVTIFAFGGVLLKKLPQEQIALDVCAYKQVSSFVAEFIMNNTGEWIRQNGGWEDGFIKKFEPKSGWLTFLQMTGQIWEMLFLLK

Insulin-degrading enzyme [9] = biological target: T4, Insulin-degrading enzyme; assay: activators of endogenous IDE in HEK cells, dose response, cell-based, fluorescence polarization (AID 588439); type: functional
[10] = biological target: Intestinal-type alkaline phosphatase (Mus musculus, UniProt P24822); assay: PubChem AID 488785; type: functional
[11] = HEp-2 cell cytotoxicity, dose response, cytotoxicity control for RSV inhibitor project, HTS (AID 2410); type: functional; conditions: human respiratory syncytial virus
[12] = biological target: Intestinal-type alkaline phosphatase (Homo sapiens, UniProt P09923); assay: inhibition of human intestinal alkaline phosphatase – biochemical, dose response (AID 488876); type: functional
[13] = biological target: T6, Alkaline phosphatase, tissue-nonspecific isozyme (Homo sapiens, UniProt P05186); assay: TNAP enzyme inhibition by screening hits, dose response, selectivity assay for mouse IAP inhibitor project, biochemical, human TNAP, uHTS hits (AID 488906); type: functional
T6 sequence (P05186 whole entry): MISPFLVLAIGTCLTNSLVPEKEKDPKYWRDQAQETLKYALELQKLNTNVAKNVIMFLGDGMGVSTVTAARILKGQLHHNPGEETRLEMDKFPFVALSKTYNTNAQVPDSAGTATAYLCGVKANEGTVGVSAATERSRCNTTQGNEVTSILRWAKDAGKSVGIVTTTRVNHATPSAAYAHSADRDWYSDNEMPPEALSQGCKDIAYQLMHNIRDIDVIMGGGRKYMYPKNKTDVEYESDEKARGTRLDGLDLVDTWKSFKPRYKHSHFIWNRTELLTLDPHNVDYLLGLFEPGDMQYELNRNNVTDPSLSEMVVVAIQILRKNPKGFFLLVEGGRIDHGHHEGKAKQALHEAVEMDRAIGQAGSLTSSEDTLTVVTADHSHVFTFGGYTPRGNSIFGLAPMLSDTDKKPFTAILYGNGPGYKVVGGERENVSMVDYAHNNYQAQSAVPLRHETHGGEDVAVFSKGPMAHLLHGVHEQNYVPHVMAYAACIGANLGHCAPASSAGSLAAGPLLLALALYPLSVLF

[14] = biological target: Nuclear receptor subfamily 5 group A member 2 (Homo sapiens, UniProt O00482); type: functional, cell-based;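 also: HEK293T cells transfected with LRH-1 and a StAR promoter luciferase reporter; potency for inhibitors that lower LRH-1 driven reporter light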
Steroidogenic factor 1 = Steroidogenic factor 1 (Homo sapiens, UniProt Q13285); assay: Counterscreen for inverse agonists of the liver receptor homolog-1 (LRH-1; NR5A2): Luminescence-based cell-based high throughput dose response assay to identify inverse agonists of the Steroidogenic Factor 1 Nuclear Receptor (SF1; NR5A1).; type: functional
[15] = biological target: T7, Type-1 angiotensin II receptor (Homo sapiens, UniProt P30556); assay: AT1 receptor antagonists, dose response, selectivity assay for APJ receptor antagonist project, cell-based, uHTS hits (AID 463214); type: functional;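 also: antagonist potency against angiotensin II stimulated AT1 response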
T7 sequence (P30556 whole entry): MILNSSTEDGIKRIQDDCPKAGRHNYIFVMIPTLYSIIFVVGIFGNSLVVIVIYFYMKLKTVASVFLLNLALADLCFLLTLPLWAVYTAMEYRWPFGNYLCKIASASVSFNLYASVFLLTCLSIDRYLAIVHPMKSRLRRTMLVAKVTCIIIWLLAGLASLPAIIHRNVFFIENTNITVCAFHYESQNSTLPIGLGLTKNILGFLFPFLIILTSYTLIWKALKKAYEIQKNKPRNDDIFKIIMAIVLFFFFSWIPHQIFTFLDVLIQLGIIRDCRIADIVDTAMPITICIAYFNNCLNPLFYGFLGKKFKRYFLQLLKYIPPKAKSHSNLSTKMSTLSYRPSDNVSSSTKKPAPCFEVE

Beta-galactosidase = Beta-galactosidase (Escherichia coli, UniProt Q8VNN2); assay: PubChem AID 485352; type: functional
Beta-galactosidase, sequence (Q8VNN2 whole entry): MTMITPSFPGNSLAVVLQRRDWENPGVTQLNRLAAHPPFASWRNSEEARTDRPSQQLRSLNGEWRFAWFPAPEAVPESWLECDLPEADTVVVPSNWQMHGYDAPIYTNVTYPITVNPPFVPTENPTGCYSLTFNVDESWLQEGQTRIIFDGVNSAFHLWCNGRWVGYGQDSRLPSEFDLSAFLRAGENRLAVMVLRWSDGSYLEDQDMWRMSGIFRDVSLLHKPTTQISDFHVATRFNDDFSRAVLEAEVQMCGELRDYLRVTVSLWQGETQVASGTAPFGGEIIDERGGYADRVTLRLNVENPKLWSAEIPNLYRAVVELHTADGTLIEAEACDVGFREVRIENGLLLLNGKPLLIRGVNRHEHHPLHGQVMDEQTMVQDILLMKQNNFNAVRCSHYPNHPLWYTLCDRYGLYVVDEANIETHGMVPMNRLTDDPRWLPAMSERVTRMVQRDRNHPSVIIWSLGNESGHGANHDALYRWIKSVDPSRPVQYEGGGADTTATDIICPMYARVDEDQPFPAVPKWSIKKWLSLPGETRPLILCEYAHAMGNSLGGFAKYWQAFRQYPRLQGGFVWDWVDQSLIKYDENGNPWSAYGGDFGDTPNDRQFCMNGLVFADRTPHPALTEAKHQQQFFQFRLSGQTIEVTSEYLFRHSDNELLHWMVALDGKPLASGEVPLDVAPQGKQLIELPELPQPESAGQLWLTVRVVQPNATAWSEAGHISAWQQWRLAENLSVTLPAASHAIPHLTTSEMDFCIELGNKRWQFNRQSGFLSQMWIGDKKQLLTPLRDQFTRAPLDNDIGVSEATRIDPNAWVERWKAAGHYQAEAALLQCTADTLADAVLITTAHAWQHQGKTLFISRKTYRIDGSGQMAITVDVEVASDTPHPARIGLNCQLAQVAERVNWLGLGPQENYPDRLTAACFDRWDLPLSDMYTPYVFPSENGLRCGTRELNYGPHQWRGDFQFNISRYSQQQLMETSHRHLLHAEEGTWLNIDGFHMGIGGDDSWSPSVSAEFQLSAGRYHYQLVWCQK

Intestinal-type alkaline phosphatase (Homo sapiens, UniProt P09923), sequence (P09923 whole entry): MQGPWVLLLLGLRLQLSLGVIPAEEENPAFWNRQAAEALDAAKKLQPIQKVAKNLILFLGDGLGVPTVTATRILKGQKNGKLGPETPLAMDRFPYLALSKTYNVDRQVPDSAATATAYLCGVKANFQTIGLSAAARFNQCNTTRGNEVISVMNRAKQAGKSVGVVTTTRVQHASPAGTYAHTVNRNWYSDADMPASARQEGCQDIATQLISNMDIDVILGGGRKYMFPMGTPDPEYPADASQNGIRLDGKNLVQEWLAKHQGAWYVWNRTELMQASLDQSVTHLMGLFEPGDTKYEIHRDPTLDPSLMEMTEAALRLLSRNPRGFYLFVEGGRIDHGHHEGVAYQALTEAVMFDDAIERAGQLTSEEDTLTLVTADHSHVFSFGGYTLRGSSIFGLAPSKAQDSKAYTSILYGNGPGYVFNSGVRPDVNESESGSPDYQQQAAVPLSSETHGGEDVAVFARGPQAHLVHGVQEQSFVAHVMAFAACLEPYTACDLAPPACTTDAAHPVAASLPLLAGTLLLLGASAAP
Nuclear receptor subfamily 5 group A member 2, sequence (O00482 whole entry): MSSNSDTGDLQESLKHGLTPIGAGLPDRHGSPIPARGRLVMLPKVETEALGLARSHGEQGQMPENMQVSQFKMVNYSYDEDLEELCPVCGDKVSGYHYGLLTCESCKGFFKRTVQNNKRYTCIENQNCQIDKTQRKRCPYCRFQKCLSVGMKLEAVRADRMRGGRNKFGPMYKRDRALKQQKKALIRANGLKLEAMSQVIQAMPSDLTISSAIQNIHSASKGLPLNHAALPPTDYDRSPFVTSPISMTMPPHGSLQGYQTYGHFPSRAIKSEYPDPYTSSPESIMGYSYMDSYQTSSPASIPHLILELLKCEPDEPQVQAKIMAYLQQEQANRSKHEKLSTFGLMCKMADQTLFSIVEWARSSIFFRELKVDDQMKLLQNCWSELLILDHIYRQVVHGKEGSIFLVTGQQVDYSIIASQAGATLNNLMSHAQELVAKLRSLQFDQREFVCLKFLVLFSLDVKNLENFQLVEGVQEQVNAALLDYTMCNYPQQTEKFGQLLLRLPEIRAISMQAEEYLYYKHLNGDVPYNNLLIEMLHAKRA
Steroidogenic factor 1, sequence (Q13285 whole entry): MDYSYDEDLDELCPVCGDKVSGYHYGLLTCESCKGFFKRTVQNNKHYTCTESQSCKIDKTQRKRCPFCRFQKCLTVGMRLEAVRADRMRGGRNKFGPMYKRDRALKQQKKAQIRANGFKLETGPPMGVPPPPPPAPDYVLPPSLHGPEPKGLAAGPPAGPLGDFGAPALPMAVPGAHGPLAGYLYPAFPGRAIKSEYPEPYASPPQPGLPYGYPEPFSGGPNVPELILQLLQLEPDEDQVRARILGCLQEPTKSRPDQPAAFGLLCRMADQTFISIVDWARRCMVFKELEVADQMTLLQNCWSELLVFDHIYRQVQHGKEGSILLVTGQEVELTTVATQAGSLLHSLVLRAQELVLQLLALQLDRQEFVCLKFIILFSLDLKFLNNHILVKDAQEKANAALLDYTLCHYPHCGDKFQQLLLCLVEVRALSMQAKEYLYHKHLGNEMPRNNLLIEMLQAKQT
Intestinal-type alkaline phosphatase (Mus musculus, UniProt P24822), sequence (P24822 whole entry): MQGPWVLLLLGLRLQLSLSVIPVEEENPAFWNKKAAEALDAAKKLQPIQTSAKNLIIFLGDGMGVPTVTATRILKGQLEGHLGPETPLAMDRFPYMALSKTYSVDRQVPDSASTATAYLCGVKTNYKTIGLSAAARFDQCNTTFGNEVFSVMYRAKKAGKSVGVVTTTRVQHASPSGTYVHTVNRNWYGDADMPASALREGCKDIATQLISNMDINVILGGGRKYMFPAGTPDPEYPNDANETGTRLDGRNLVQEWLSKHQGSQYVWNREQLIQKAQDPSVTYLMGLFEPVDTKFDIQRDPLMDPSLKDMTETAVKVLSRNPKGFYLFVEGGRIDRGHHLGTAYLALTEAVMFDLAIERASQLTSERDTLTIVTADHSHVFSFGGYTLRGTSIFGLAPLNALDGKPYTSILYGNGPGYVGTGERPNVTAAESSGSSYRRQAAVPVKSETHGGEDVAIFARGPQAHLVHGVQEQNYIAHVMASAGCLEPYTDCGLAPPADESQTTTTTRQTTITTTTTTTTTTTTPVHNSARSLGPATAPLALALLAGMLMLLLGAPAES

COc1cccc(-c2ccc3c(c2)[C@H]2[C@H](CCN2C(=O)C2CCC2)[C@@H](CO)N3)c1
AC50 [1]: 7.13 µM (active)

COC(=O)c1ccc(NC(S)=NC2c3ccccc3CC2O)cc1 (configuration not stated)
AC50 [2]: 26.6 µM (active)

CC(=O)OC1C(O)C(C)OC(OC2C(OC(=O)C3CCC4C(C3)OC3(CC(OC(=O)/C=C/c5ccccc5)C(C)CO3)C43CO3)OC(C)C(O)C2OC(C)=O)C1O (configuration not stated)
IC50 [3]: 49.8 µM (inactive)
GI50 (P388): 0.0895 µM (active)
GI50 (P388/ADR): > 1.75 µM (inactive)
GI50 (SN12K1): 0.0172 µM (active)

Cc1ccc(NC(=O)CSCC(=O)Nc2sccc2C#N)cc1
AC50 [2]: 18.9 µM (active)

COc1ccc(CCN(C)c2ccc(C(N)=O)cc2[N+](=O)[O-])cc1OC
AC50 [1]: 5.7 µM (active)

COc1ccc(NC(=O)c2cnc(C)cn2)cc1-n1cnnn1
AC50 [1]: 0.733 µM (active)

C#CCOCCOCCOCCNc1nc(N2CCN(C(=O)CCCCCCCCCCNC(=O)[C@H](CCCCN)n3cc(C)nn3)CC2)nc(N2CCN(C(=O)CCCCCCCCCCNC(=O)[C@@H]([C@H](C)O)n3cc(C)nn3)CC2)n1
IC50 (HEK293 [4]): 11.4 µM (inactive)
IC50 [5]: 11.1 µM (active)
EC50 (HEK293 [6]): > 54.7 µM (inactive)
IC50 [7]: 6.61 µM (active)
EC50 (Insulin-degrading enzyme [8]): > 54.7 µM (inactive)
IC50 (Bcl-2-related protein A1): > 20 µM (inactive)
EC50 (Insulin-degrading enzyme [9]): > 54.7 µM (inactive)

C#CCOCCOCCOCCNc1nc(N2CCN(C(=O)CCCCCCCCCCNC(=O)[C@@H](CCSC)n3cc(CCO)nn3)CC2)nc(N2CCN(C(=O)CCCCCCCCCCNC(=O)[C@H]([C@@H](C)CC)n3cc(CCCCN=C(N)N)nn3)CC2)n1
IC50 (HEK293 [4]): 4.44 µM (active)
IC50 [10]: 1.66 µM (active)
IC50 [5]: 5.82 µM (active)
EC50 (HEK293 [6]): > 56 µM (inactive)
CC50 [11]: 16 µM (active)
IC50 [12]: > 100 µM (inactive)
IC50 [7]: 3.81 µM (active)
EC50 (Insulin-degrading enzyme [8]): 2.36 µM (active)
IC50 [13]: 58.7 µM (active)
IC50 (Bcl-2-related protein A1): 5.51 µM (active)
EC50 (Insulin-degrading enzyme [9]): > 2.03 µM (active)

COc1ccc(NC(=O)COC(=O)c2cc(S(=O)(=O)N3CCCC3)ccc2O)cc1
IC50 [14]: 35.9 µM (inactive)
IC50 (Steroidogenic factor 1): 11.2 µM (inactive)

O=C(NNC(=S)Nc1ccc(Cl)cc1Cl)c1ccc(N2CCOCC2)c([N+](=O)[O-])c1
IC50 [15]: > 40 µM (not active)
AC50 [2]: 40.2 µM (active)
EC50 (Beta-galactosidase): > 40 µM (inactive)
